Here are results for 4 molecules from US6608203B2, “Tetrahydroisoquinoline compounds as estrogen agonists/antagonists” (Pfizer Inc., priority 1999, dated 2003).

Series [1] deals with male Sprague-Dawley rats. The series can be described thus: Assay 2: Effect on Prostate Weight. Format: in vivo, rat. Particulars: subcutaneous injection daily for 14 days, compared to vehicle. The procedure: Three-month-old male Sprague-Dawley rats are administered by subcutaneous injection control vehicle (10% ethanol in water), estradiol (30 μg/kg), testosterone (1 mg/kg), or a test compound according to the present invention daily for 14 days (n=6/group). After 14 days the animals are sacrificed, the prostate is removed, and the wet prostate weight is determined. Mean weight is determined and statistical significance (p<0.05) is determined compared to the vehicle-treated group using the Student's t-test.

For series [2] the following is noted: unlike estrogen; cited from earlier work.
For series [3], the system named is male rats. As to conditions: cited from earlier work.
The subject of series [4] is male rats. Particulars: 200 and 400 mg/kg/day; cited from earlier work.

Structures are written as SMILES.

As to `C[C@]12CC[C@H]3[C@@H](CCC4=CC(=O)CC[C@@]43C)[C@@H]1CC[C@@H]2O` [Testosterone, testosterone], the “effect on wet prostate weight” value in series [1] (testosterone 1 mg/kg) is on record as “no effect”.

As for `C[C@]12CC[C@@H]3c4ccc(O)cc4CC[C@H]3[C@@H]1CC[C@@H]2O` [estrogen, estradiol], the “effect on wet prostate weight” value in series [1] (estrogen at 30 μg/kg) is listed as “significantly reduce prostate weight”.

For `O=C(c1ccc(OCCN2CCCCC2)cc1)c1c(-c2ccc(O)cc2)sc2cc(O)ccc12` [raloxifene, 6-hydroxy-2-(4-hydroxyphenyl)-3-[4-(2-piperidinoethoxy)benzoyl] benzo[b] thiophene], in series [2], the uterine stimulatory effect entry is on record as “minimal uterine stimulatory effect”. Also, the “effect on ventral prostate” value in series [3] is given as “regression of the ventral prostate”.

Consider `CC/C(=C(\c1ccccc1)c1ccc(OCCN(C)C)cc1)c1ccccc1` [tamoxifen, 1-(4-β-dimethylaminoethoxyphenyl)-1,2-diphenyl-but-1-ene], for which the “weights of the testes and secondary sex organs” value in series [4] is “reduces the weights of the testes and secondary sex organs”.
